Activity calls are given as the source filed them.
Legend:
[1] = biological target: Phytoene desaturase (Gentiana lutea) (UniProt Q8W433); assay: Competitive inhibition of Gentiana lutea desaturase using decyl plastoquinone as cofactor and phytoene as substrate at 0.1 uM after 2 hr by double reciprocal plot analysis
[2] = biological target: 15-cis-phytoene desaturase (Synechococcus elongatus (strain PCC 7942) (Anacystis nidulans R2)) (UniProt P26294); assay: Competitive inhibition of Synechococcus phytoene desaturase using decyl plastoquinone as cofactor and phytoene as substrate at 0.1 uM after 2 hr by double reciprocal plot analysis
15-cis-phytoene desaturase (Synechococcus elongatus (strain PCC 7942) (Anacystis nidulans R2)), sequence (P26294 whole entry): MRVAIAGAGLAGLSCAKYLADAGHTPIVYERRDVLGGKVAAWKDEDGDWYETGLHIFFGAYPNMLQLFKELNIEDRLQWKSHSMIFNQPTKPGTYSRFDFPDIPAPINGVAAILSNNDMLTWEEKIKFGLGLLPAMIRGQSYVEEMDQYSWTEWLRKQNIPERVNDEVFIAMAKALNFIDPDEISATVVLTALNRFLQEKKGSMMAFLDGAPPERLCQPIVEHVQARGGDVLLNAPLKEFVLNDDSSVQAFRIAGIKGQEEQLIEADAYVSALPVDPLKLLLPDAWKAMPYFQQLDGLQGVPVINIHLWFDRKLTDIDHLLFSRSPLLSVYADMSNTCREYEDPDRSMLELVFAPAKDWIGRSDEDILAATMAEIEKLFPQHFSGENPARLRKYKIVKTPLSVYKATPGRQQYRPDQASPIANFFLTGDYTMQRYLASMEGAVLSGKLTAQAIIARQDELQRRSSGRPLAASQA

[3] = biological target: 15-cis-phytoene desaturase (Synechococcus elongatus (strain PCC 7942) (Anacystis nidulans R2)) (UniProt P26294); assay: Competitive inhibition of Synechococcus phytoene desaturase using NADP as cofactor and phytoene as substrate at 0.1 uM after 2 hr by double reciprocal plot analysis

Measured: inhibition

Phytoene desaturase (Gentiana lutea), sequence (Q8W433 as listed by the source): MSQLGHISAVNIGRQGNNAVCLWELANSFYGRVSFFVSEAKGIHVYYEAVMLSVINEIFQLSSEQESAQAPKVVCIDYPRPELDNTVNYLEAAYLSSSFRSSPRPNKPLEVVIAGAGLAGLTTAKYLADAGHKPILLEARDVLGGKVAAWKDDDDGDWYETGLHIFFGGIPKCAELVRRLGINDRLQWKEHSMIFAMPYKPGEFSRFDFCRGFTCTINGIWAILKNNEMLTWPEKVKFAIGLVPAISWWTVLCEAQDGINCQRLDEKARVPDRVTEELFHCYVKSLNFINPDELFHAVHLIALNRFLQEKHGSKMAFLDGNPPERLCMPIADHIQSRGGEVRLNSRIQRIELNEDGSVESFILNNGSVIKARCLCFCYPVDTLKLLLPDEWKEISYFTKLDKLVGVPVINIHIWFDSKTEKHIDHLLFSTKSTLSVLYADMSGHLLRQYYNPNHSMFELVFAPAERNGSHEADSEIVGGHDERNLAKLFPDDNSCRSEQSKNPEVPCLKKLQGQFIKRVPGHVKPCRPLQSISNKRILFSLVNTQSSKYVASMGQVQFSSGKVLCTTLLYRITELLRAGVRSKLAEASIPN

CNc1cnn(-c2cccc(C(F)(F)F)c2)c(=O)c1Cl
active: [1] | [2] | [3]

Source: ChEMBL document CHEMBL3046270, “Bleaching herbicide norflurazon inhibits phytoene desaturase by competition with the cofactors” (J Agric Food Chem, 2001)
